Four compounds from patent US20230286973A1, “PROTEIN SECRETION INHIBITORS” (KEZAR LIFE SCIENCES, priority 2020, published 2023) can be followed below.

A word on the EC50: it is the concentration needed to bring the measured effect to its halfway point.

The structures appear in SMILES notation.

Series [1] has as its system PD1-ss+10aa/Gaussia Luciferase. The series is described as follows: Dox-Induced PD1-ss-Gluc Assay. Conditions: 24 hr Dox induction; 293FRT/TO cells; read-out: 24 hr Dox Inducible PD1ssGluc 293FRT/TO: Mean IC50. The series is classed as cell-based. An outline of the steps: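 Flp-In 293 T-REx, stable line; Tet-regulated PD1-ss+10aa fused to Gaussia luciferase; plated day prior; cpd + doxycycline in DMSO/media; 37 °C, 5% CO2.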

Series [2] deals with IL-2-FL/Gaussia Luciferase. The series is described as follows: Dox Induced IL2-FL-Gluc Assay. To be noted: for IC50: 24 hr Dox induction, 293FRT/TO cells, read-out: 24 hr Dox Inducible IL2FLGluc 293FRT/TO: Mean IC50; for 24 hr Dox Inducible IL2FLGluc 293FRT/TO: IL2/PD1: ratio of IL2FLGluc IC50 to PD1ssGluc IC50. The series is classed as cell-based. An outline of the steps: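 Cells are plated one day ahead, then receive compound dilutions in DMSO/media with doxycycline and incubate at 37° C, 5% CO2. They are Flp-In 293 T-REx cells expressing a full-length IL-2 (amino acids 1-153)–Gaussia luciferase fusion under T-REx control.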

Series [3] can be described thus: Liver Microsome Stability Assay (mouse). Conditions: mouse liver microsomes, with NADPH, 1.0 uM compound. A general note: Microsomes from liver hold many membrane-bound enzymes, among them those of drug oxidation.
Experimental: (§1) Stability of a compound was assessed in the presence of liver microsomes from various sources—mouse, rat, monkey and human liver microsomes. 1.0 uM compound, 0.4% DMSO in 0.1 M Potassium Phosphate with 1.0 mg/mL liver microsomes, were incubated at 37° C. with or without 1 mM NADPH. The samples were quenched at 0, and 30 minutes.
Series [4] has as its system multiple myeloma cell line U266B1. The series is described as follows: U266 Cell Viability Assay. The format is cell-based, human. To be noted: Homo sapiens, U-266, 48 h, U266B1 cells, Celltiter-Glo. An outline of the steps: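 Steps: culture in RPMI 1640 plus 10% FBS and 2 mM glutamine; plate and add compound dilutions; incubate 48 hours at 37° C., 5% CO2; add CellTiter-Glo and quantify luciferase signal.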
For orientation: Cellular ATP, detected with luciferase, serves as a proxy for viable cell number.

Series [5] in a line: Liver Microsome Stability Assay (monkey). To be noted: monkey liver microsomes, with NADPH, 1.0 uM compound.
Experimental: as §1
Series [6] deals with multiple myeloma cell line NCI-H929. The series is described as follows: H929 Cell Viability Assay. The format is cell-based, human. Conditions: Homo sapiens, NCI-H929, 48 h, NCI-H929 cells, Celltiter-Glo. An outline of the steps:
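Luminescent ATP detection (CellTiter-Glo) after 48 hours of compound exposure measures viability. Cells were plated in RPMI 1640 containing 10% fetal bovine serum and kept at 37° C under 5% CO2.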

A short description of series [7]: Liver Microsome Stability Assay (human). Conditions: human liver microsomes, with NADPH, 1.0 uM compound.
Experimental: as §1
Series [8] can be described thus: Liver Microsome Stability Assay (rat). Conditions: rat liver microsomes, with NADPH, 1.0 uM compound.
Experimental: as §1
The test system of series [9] is TNFα-FL/Gaussia Luciferase. Nature of the series: Dox Induced TNFα-FL-Gluc Assay. The format is cell-based. Conditions: for IC50: 24 hr Dox induction, 293FRT/TO cells, read-out: 24 hr Dox Inducible TNFaFLGluc 293FRT/TO: Mean IC50; for 24 hr Dox Inducible TNFaFLGluc 293FRT/TO: TNF/PD1: ratio of TNFaFLGluc IC50 to PD1ssGluc IC50. An outline of the steps: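 Stereoisomer mixtures were tested where stereochemistry is not drawn. Induction used doxycycline added together with compound dilutions in DMSO/media to Flp-In 293 T-REx cells carrying a T-REx-regulated TNFα (aa 1-233)-Gaussia luciferase construct, then incubated at 37 °C, 5% CO2.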

Series [10] has as its system HER3-ss+4aa/Gaussia Luciferase. Nature of the series: Dox-Induced Her3-ss-Gluc Assay. The series is classed as cell-based. To be noted: 24 hr Dox induction; 293FRT/TO cells; read-out: 24 hr Dox Inducible Her3(ss + 4)Gluc 293FRT/TO: Mean IC50. The gist of the method:
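Cells were seeded a day ahead, then given compound diluted in DMSO/media with doxycycline to induce expression of the HER3 signal sequence (+4 aa)–Gaussia luciferase fusion. Incubation was at 37° C., 5% CO2, in a stable Flp-In 293 T-REx line.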

For the compound `CNc1ccc(N2CCC[C@@H]2c2csc(NC(=O)c3cccn3Cc3ccncc3)n2)cc1` [Compound A15], the IC50 in series [1] came out at 34.2 nM; in [2], 97.1 nM; in [9], 875 nM; in series [10] it was 72.5 nM. Moreover, the “24 hr Dox Inducible IL2FLGluc 293FRT/TO: IL2/PD1” value in series [2] turned out to be 2.8. Further, the “Liver Microsome Stability (Multiple Species): Mouse - % Remaining after 30 min w/NADPH” value in series [3] came out at 10.5%. The 50% effective concentration (EC50) in series [4] is 7350 nM; in series [6], 767 nM. The “Liver Microsome Stability (Multiple Species): Monkey - % Remaining after 30 min w/NADPH” value in series [5] is on record as 1.86%. Further, in series [7], the “Liver Microsome Stability (Multiple Species): Human - % Remaining after 30 min w/NADPH” value came out at 5.24%. The “Liver Microsome Stability (Multiple Species): Rat - % Remaining after 30 min w/NADPH” value in series [8] was determined as 17.7%. For the same compound, in series [9], the “24 hr Dox Inducible TNFaFLGluc 293FRT/TO: TNF/PD1” value was 25.6.

In the case of `CC(C)n1ccc(/C=C/c2csc(NC(=O)c3cccn3Cc3ccncc3)n2)n1` [Compound B75, (E)-N-(4-(2-(1-isopropyl-1H-pyrazol-3-yl)vinyl)thiazol-2-yl)-1-(pyridin-4-ylmethyl)-1H-pyrrole-2-carboxamide], the IC50 in series [1] was found to be 446 nM; in [2], 17100 nM; in series [9] it was 10300 nM; in series [10] it was 5670 nM. In series [2], the “24 hr Dox Inducible IL2FLGluc 293FRT/TO: IL2/PD1” value amounted to 38. Moreover, the “Liver Microsome Stability (Multiple Species): Mouse - % Remaining after 30 min w/NADPH” value in [3] is recorded as 0.94%. The concentration giving a half-maximal response (EC50) in series [4] was 6750 nM; in series [6] it was 7160 nM. In [5], the “Liver Microsome Stability (Multiple Species): Monkey - % Remaining after 30 min w/NADPH” value came out at 0.23%. In addition, in [7], the “Liver Microsome Stability (Multiple Species): Human - % Remaining after 30 min w/NADPH” value stood at 2.26%. Further, the “Liver Microsome Stability (Multiple Species): Rat - % Remaining after 30 min w/NADPH” value in series [8] came to 0.27%. The “24 hr Dox Inducible TNFaFLGluc 293FRT/TO: TNF/PD1” value in [9] is listed as 23.

Consider `COC(=O)Nc1ccc(N2CCC[C@@H]2c2csc(NC(=O)c3cccn3Cc3ccnc(F)c3)n2)nc1` [Compound A175, methyl (R)-(6-(2-(2-(1-((2-fluoropyridin-4-yl)methyl)-1H-pyrrole-2-carboxamido)thiazol-4-yl)pyrrolidin-1-yl)pyridin-3-yl)carbamate], for which the IC50 in series [1] came out at 3.02 nM; in [2], 12.9 nM; in series [9], 80.7 nM; in series [10] it was 7.95 nM. In addition, in series [2], the “24 hr Dox Inducible IL2FLGluc 293FRT/TO: IL2/PD1” value stood at 4.3. Moreover, the “Liver Microsome Stability (Multiple Species): Mouse - % Remaining after 30 min w/NADPH” value in [3] amounted to 1.57%. For the same compound, the EC50 was greater than 25000 nM in series [4] and 188 nM in [6]. Also, the “Liver Microsome Stability (Multiple Species): Monkey - % Remaining after 30 min w/NADPH” value in [5] came out at 0.22%. In series [7], the “Liver Microsome Stability (Multiple Species): Human - % Remaining after 30 min w/NADPH” value is reported as 1.38%. Also, in [8], the “Liver Microsome Stability (Multiple Species): Rat - % Remaining after 30 min w/NADPH” value came out at 0.32%. Moreover, the “24 hr Dox Inducible TNFaFLGluc 293FRT/TO: TNF/PD1” value in series [9] is reported as 26.7.

Regarding `CN1CCOC(/C=C/c2csc(NC(=O)c3cccn3Cc3ccncc3)n2)C1` (stereo not drawn) [Compound B6, (E)-N-(4-(2-(4-methylmorpholin-2-yl)vinyl)thiazol-2-yl)-1-(pyridin-4-ylmethyl)-1H-pyrrole-2-carboxamide], the IC50 in series [1] was 4400 nM; in [2], greater than 25000 nM; in [9], greater than 25000 nM; in [10], greater than 25000 nM. Further, the “24 hr Dox Inducible IL2FLGluc 293FRT/TO: IL2/PD1” value in series [2] is reported as 5.7. In addition, the “Liver Microsome Stability (Multiple Species): Mouse - % Remaining after 30 min w/NADPH” value in [3] was 10%. For the same compound, the concentration for a half-maximal effect (EC50) in series [4] and in [6] was greater than 25000 nM each time. For the same compound, the “Liver Microsome Stability (Multiple Species): Monkey - % Remaining after 30 min w/NADPH” value in series [5] is 6.93%. The “Liver Microsome Stability (Multiple Species): Human - % Remaining after 30 min w/NADPH” value in series [7] came out at 5.85%. The “Liver Microsome Stability (Multiple Species): Rat - % Remaining after 30 min w/NADPH” value in series [8] is 13.2%. In addition, the “24 hr Dox Inducible TNFaFLGluc 293FRT/TO: TNF/PD1” value in series [9] was greater than 5.68.
